# Test results taken from PMC5537068, “Endoglucanase activity at a second site in Pyrococcus furiosus triosephosphate isomerase—Promiscuity or compensation for a metabolic handicap?” (FEBS Open Bio, 2017).
# What was measured:
# PfuTIM [1] = target: T1, PfuTIM (Pyrococcus furiosus, UniProt P62002, E144G); assay: resorufin release, absorbance at […] nm; assay type: biochemical; details: 37 °C, overnight incubation
# T1 construct: gene tpiA; full-length, 6xHis tag from pQE30 (BamHI/HindIII), tag kept; E. coli M15[pREP4]; IMAC and gel filtration; monomer ~25 kDa; octamer in Tris, hexamer in phosphate
# PfuTIM [2] = target: T2, PfuTIM (Pyrococcus furiosus, UniProt P62002); assay: resorufin release, absorbance at […] nm; assay type: biochemical; details: pH 6.0, 35 °C; phosphate-purified enzyme 2 μM; substrate 2.5-250 μM; promiscuous endoglucanase activity, second site
# T2 construct: gene tpiA; full-length, 6xHis tag from pQE30 (BamHI/HindIII), tag kept; E. coli M15[pREP4]; IMAC and gel filtration; monomer ~25 kDa; octamer in Tris, hexamer in phosphate
# PfuTIM [3] = target: T2, PfuTIM; assay: intrinsic tryptophan fluorescence quenching, hyperbolic fit; assay type: binding
# PfuTIM [4] = target: T2, PfuTIM; assay: inhibition of cellobioside-resorufin hydrolysis, absorbance at […] nm; assay type: biochemical; details: enzyme 2 μM; cellobioside-resorufin 100 μM; norharman 25 μM; endoglucanase activity; headed as competitive
# T2 sequence (P62002 whole entry): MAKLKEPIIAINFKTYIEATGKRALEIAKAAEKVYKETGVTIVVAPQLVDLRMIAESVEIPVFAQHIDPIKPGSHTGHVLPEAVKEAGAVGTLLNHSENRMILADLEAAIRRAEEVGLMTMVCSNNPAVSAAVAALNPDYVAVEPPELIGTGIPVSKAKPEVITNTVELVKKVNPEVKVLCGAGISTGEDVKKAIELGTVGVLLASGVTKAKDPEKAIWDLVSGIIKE
# T1 sequence (P62002 whole entry E144G): as the sequence (P62002 whole entry) above, with E144G counted along it
Km (PfuTIM [2]),SMILES,% of wild-type activity (PfuTIM [1]),Kd (PfuTIM [3]) [µM],complete inhibition at 25 μM (PfuTIM [4])
~ 53.62 ± 4.05 μM,O=c1ccc2nc3ccc(O[C@@H]4O[C@H](CO)[C@@H](O[C@@H]5O[C@H](CO)[C@@H](O)[C@H](O)[C@H]5O)[C@H](O)[C@H]4O)cc3oc-2c1 [cellobioside–resorufin],"percentages of activity with respect to the wild‐type protein are plotted, for assays with cellobioside–resorufin",,
,c1ccc2c(c1)[nH]c1cnccc12 [norharman],,~83,"With norharman, complete inhibition of endoglucanase/cellulase activity is seen"
